In patent publication US12448389B2, “BRM targeting compounds and associated methods of use” (Prelude Therapeutics Incorporated, priority 2020, dated 2025):

How the values were obtained:
SMARCA2-HiBiT = target: T1, SMARCA2-HiBiT (Homo sapiens, UniProt P51531); experiment: SMARCA2 HiBiT degradation assay in HeLa cells; format: cell-based; conditions: 18 hours incubation; for DC50: read-out: HeLa_HiBit-SM2 DC50; for Dmax: HeLa, read-out: HeLa-HiBit-SM2 Dmax (%)
T1 construct: SMARCA2-HiBiT knock-in Hela monoclonal cell (CS302366); host or cells: HeLa monoclonal knock-in line (CRISPR HiBiT knock-in at the endogenous locus, heterozygous)
How it was run: (§1)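 HeLa monoclonal lines with heterozygous HiBiT knock-in were seeded at 2500 cells/well in EMEM with 10% FBS and treated with compound for 18 h at 37 °C. Remaining tagged protein was measured by Nano-Glo HiBiT lytic luminescence after 30–60 min at RT, and values came from curve fitting.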

SMARCA4-HiBiT = target: T2, SMARCA4-HiBiT (Homo sapiens, UniProt P51532); experiment: SMARCA4 HiBiT degradation assay in HeLa cells; format: cell-based; conditions: 18 hours incubation; for DC50: read-out: HeLa-HiBit-SM4 DC50; for Dmax: HeLa, read-out: HeLa-HiBit-SM4 Dmax (%)
T2 construct: SMARCA4-HiBiT knock-in Hela monoclonal cell (CS3023226); host or cells: HeLa monoclonal knock-in line (CRISPR HiBiT knock-in at the endogenous locus, heterozygous)
How it was run: as §1

T2 sequence (P51532 whole entry): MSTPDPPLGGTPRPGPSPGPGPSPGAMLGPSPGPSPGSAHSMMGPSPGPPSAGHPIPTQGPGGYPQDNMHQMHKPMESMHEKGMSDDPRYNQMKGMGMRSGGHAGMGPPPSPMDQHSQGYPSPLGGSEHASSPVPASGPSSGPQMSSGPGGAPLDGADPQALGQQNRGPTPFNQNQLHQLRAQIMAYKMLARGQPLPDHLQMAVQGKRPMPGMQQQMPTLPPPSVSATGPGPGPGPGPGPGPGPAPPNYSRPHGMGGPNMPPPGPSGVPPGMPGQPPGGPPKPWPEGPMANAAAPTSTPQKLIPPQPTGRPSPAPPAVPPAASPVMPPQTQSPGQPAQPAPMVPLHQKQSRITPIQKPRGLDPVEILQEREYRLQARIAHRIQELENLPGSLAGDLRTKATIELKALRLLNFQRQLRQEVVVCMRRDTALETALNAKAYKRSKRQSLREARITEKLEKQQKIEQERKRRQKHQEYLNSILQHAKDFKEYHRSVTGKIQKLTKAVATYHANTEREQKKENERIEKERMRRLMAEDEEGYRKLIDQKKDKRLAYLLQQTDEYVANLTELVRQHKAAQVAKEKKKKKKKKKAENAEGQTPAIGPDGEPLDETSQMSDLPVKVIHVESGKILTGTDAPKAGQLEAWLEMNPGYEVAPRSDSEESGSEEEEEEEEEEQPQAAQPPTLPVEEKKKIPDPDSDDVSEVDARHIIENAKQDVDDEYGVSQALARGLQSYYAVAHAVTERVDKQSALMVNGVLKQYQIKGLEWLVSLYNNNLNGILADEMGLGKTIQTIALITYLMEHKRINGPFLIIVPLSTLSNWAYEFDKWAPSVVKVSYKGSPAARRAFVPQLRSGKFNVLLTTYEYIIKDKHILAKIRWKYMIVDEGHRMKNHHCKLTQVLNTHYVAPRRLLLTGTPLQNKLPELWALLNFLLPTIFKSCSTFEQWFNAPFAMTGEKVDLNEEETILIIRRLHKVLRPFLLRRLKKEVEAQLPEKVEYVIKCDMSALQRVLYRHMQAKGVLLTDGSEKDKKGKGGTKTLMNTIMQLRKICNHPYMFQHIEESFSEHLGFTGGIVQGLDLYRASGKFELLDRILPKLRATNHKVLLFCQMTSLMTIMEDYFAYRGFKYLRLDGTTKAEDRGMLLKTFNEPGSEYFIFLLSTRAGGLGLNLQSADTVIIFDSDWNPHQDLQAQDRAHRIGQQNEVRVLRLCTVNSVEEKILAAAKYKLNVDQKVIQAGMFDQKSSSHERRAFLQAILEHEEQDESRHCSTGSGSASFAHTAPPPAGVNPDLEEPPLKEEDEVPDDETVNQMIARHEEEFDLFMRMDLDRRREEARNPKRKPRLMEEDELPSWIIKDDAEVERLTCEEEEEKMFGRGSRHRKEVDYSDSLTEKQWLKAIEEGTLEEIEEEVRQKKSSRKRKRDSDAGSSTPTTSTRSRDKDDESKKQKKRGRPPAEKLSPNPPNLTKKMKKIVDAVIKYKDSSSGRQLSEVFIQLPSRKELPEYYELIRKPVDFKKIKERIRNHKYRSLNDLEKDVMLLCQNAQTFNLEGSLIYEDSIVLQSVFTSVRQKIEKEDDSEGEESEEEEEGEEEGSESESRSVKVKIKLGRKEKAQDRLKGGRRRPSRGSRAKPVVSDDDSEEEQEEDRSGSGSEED
T1 sequence (P51531 whole entry): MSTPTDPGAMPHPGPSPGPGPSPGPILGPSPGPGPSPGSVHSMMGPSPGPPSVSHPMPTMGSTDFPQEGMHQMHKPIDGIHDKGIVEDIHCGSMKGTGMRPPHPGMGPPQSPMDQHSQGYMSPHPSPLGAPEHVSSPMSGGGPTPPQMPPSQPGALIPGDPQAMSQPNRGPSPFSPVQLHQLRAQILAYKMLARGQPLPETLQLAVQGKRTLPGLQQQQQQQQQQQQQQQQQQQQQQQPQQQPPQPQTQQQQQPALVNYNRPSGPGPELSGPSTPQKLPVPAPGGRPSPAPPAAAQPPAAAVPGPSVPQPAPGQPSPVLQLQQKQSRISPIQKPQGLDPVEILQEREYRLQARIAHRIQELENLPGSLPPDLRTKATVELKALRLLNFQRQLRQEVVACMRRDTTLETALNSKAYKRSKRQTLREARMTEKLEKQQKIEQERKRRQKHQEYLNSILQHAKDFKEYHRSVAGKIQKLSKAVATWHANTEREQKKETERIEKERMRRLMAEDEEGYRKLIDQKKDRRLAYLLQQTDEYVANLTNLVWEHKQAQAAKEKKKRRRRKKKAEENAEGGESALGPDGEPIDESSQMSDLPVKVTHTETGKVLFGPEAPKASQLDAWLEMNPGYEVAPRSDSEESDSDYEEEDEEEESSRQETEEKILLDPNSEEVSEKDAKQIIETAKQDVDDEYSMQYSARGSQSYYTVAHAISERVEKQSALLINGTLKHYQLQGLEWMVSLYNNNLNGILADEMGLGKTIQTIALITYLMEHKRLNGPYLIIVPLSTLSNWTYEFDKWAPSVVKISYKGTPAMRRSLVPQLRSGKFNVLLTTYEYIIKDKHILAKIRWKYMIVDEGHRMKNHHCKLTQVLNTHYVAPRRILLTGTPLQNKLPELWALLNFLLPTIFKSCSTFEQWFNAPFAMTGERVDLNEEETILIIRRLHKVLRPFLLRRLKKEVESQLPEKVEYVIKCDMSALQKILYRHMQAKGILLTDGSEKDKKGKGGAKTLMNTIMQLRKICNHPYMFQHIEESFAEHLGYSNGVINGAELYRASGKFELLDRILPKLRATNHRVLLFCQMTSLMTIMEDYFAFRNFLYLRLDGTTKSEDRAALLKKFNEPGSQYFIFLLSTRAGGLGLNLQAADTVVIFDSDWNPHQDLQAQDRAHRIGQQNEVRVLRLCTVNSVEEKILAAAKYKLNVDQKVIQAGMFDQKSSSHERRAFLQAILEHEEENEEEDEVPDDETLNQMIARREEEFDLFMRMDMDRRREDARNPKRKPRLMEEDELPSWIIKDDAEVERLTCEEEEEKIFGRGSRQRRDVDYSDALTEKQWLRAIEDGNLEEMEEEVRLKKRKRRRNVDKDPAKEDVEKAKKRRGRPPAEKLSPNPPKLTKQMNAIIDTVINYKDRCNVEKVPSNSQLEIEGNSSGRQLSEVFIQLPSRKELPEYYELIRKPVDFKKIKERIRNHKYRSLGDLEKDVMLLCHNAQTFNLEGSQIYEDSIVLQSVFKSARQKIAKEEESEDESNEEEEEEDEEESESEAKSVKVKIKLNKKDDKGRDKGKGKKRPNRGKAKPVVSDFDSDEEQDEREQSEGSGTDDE

Row | Compound | HeLa-HiBit-SM2 Dmax (%) (SMARCA2-HiBiT) | DC50 (SMARCA2-HiBiT) | HeLa-HiBit-SM4 Dmax (%) (SMARCA4-HiBiT) | DC50 (SMARCA4-HiBiT) | Dmax (SMARCA2-HiBiT) | Dmax (SMARCA4-HiBiT)
1 | O=C1CCC(N2C(=O)c3ccc(N4CC[C@@H](CN5C[C@@H]6[C@H](C5)[C@H]6CN5CCN6c7cc(-c8ccccc8O)nnc7NC[C@H]6C5)[C@H](F)C4)cc3C2=O)C(=O)N1 (stereo partly drawn) [Example 201, 2-(2,6-dioxopiperidin-3-yl)-5-[(3S,4S)-3-fluoro-4-[[(1S,5R)-6-[[(10S)-4-(2-hydroxyphenyl)-1,5,6,8,12-pentazatricyclo [8.4.0.02,7]tetradeca-2(7),3,5-trien-12-yl]methyl]-3-azabicyclo[3.1.0]hexan-3-yl]methyl]piperidin-1-yl]isoindole-1,3-dione] | A (A=Dmax>85%) | < 10 nM | A (A=Dmax>85%) | < 10 nM |  | 
2 | C[C@@H]1C[C@H](CN2C[C@@H]3[C@H](C2)[C@H]3CN2CCN3c4cc(-c5ccccc5O)nnc4NC[C@H]3C2)CCN1c1cc2c(cc1F)C(=O)N(C1CCC(=O)NC1=O)C2=O (stereo partly shown) [Example 176] |  | < 10 nM |  | 10 to 100 nM | > 85% | 50 to 75%
3 | O=C1CCC(N2C(=O)c3ccc(N4CC5CCC(C4)C5CN4C[C@@H]5[C@H](C4)[C@H]5CN4CCN5c6cc(-c7ccccc7O)nnc6NC[C@H]5C4)cc3C2=O)C(=O)N1 (stereo partly drawn) [Example 53, 2-(2,6-dioxopiperidin-3-yl)-5-(8-(((1R,5S,6r)-6-(((S)-2-(2-hydroxyphenyl)-5,6,6a,7,9,10-hexahydro-8H-pyrazino [1′,2′:4,5]pyrazino[2,3-c]pyridazin-8-yl)methyl)-3-azabicyclo [3.1,0]hexan-3-yl)methyl)-3-azabicyclo[3.2.1]octan-3-yl)isoindoline-1,3-dione] |  | < 10 nM |  | < 10 nM | 75 to 85% | 50 to 75%
4 | O=C1CCC(N2Cc3cc(N4CCC(CN5C[C@@H]6[C@H](C5)[C@H]6CN5CCN6c7cc(-c8ccccc8O)nnc7NC[C@H]6C5)CC4)ccc3C2=O)C(=O)N1 (stereo partly drawn) [Example 92, 3-(5-(4-(((1R,5S,6r)-6-(((S)-2-(2-hydroxyphenyl)-5,6,6a,7,9,10-hexahydro-8H-pyrazino[1′,2′:4,5]pyrazino[2,3-c]pyridazin-8-yl)methyl)-3-azabicyclo[3.1.0]hexan-3-yl)methyl)piperidin-1-yl)-1-oxoisoindolin-2-yl)piperidine-2,6-dione] |  | < 10 nM |  | < 10 nM | > 85% | 75 to 85%
5 | O=C1CCC(N2C(=O)c3ccc(OC4CCN(CC5CCN(C(=O)N6CCN7c8cc(-c9ccccc9O)nnc8NC[C@H]7C6)CC5)CC4)cc3C2=O)C(=O)N1 (stereo partly drawn) [Example 145, 2-(2,6-dioxopiperidin-3-yl)-5-((1-((1-((S)-2-(2-hydroxyphenyl)-6,6a,7,8,9,10-hexahydro-5H-pyrazino[1′,2′:4,5]pyrazino[2,3-c]pyridazine-8-carbonyl)piperidin-4-yl)methyl)piperidin-4-yl)oxy)isoindoline-1,3-dione] |  | < 10 nM |  | 10 to 100 nM | 75 to 85% | 75 to 85%
6 | CC1(CN2CCN3c4cc(-c5ccccc5O)nnc4NC[C@H]3C2)CCN(CC2CCN(c3ccc4c(c3)CN(C3CCC(=O)NC3=O)C4=O)CC2)CC1 (stereo partly drawn) [Example 250, 3-(5-(4-((4-(((S)-2-(2-hydroxyphenyl)-5,6,6a,7,9,10-hexahydro-8H-pyrazino[1′,2′:4,5]pyrazino[2,3-c]pyridazin-8-yl)methyl)-4-methylpiperidin-1-yl)methyl)piperidin-1-yl)-1-oxoisoindolin-2-yl)piperidine-2,6-dione] |  | < 10 nM |  | < 10 nM | > 85% | > 85%
7 | C[C@@H]1C[C@H](CN2C[C@@H]3[C@H](C2)[C@H]3CN2CCN3c4cc(-c5ccccc5O)nnc4NC[C@H]3C2)CCN1c1ccc2c(c1)C(=O)N(C1CCC(=O)NC1=O)C2=O (stereo partly drawn) [Example 183, 2-(2,6-dioxopiperidin-3-yl)-5-[(2R,4R)-4-[[(1S,5R)-6-[[(10S)-4-(2-hydroxyphenyl)-1,5,6,8,12-pentazatricyclo[8.4.0.02,7]tetradeca-2,4,6-trien-12-yl]methyl]-3-azabicyclo[3.1.0]hexan-3-yl]methyl]-2-methylpiperidin-1-yl] isoindole-1,3-dione] |  | < 10 nM |  | < 10 nM | > 85% | 75 to 85%
8 | O=C1CCC(N2C(=O)c3ccc(N4CCC(CN5CCC(S(=O)(=O)N6CCN7c8cc(-c9ccccc9O)nnc8NC[C@H]7C6)CC5)CC4)cc3C2=O)C(=O)N1 (stereo partly drawn) [Example 137, 2-(2,6-dioxopiperidin-3-yl)-5-(4-((4-(((S)-2-(2-hydroxyphenyl)-5,6,6a,7,9,10-hexahydro-8H-pyrazino[1′,2′:4,5]pyrazino[2,3-c]pyridazin-8-yl)sulfonyl)piperidin-1-yl)methyl)piperidin-1-yl)isoindoline-1,3-dione] |  | < 10 nM |  | 10 to 100 nM | 50 to 75% | 50 to 75%
9 | O=C1CCC(N2C(=O)c3cc(F)c(N4CCC(CN5CCC(CN6CCN7c8cc(-c9ccccc9O)nnc8NC[C@H]7C6)CC5)CC4)cc3C2=O)C(=O)N1 (stereo partly drawn) [Example 164, 2-(2,6-dioxopiperidin-3-yl)-5-fluoro-6-[4-[[4-[[(10S)-4-(2-hydroxyphenyl)-1,5,6,8,12-pentazatricyclo[8.4.0.02,7]tetradeca-2,4,6-trien-12-yl]methyl]piperidin-1-yl]methyl]piperidin-1-yl]isoindole-1,3-dione] |  | < 10 nM |  | < 10 nM | > 85% | 75 to 85%
10 | O=C1CCC(N2C(=O)c3ccc(N4CCC(NC5CCN(C(=O)N6CCN7c8cc(-c9ccccc9O)nnc8NC[C@H]7C6)CC5)CC4)cc3C2=O)C(=O)N1 (stereo partly drawn) [Example 141, 2-(2,6-dioxopiperidin-3-yl)-5-(4-((1-((S)-2-(2-hydroxyphenyl)-6,6a,7,8,9,10-hexahydro-5H-pyrazino[1′,2′:4,5]pyrazino[2,3-c]pyridazine-8-carbonyl)piperidin-4-yl)amino)piperidin-1-yl)isoindoline-1,3-dione] |  | < 10 nM |  | 10 to 100 nM | 75 to 85% | 50 to 75%
11 | O=C1CCC(N2Cc3cc(C4CCN(CC5CCN(CCN6CCN7c8cc(-c9ccccc9O)nnc8NC[C@H]7C6)CC5)CC4)ccc3C2=O)C(=O)N1 (stereo partly drawn) [Example 213, 3-(5-(1-((1-(2-((S)-2-(2-hydroxyphenyl)-5,6,6a,7,9,10-hexahydro-8H-pyrazino[1′,2′:4,5]pyrazino[2,3-c]pyridazin-8-yl)ethyl)piperidin-4-yl)methyl)piperidin-4-yl)-1-oxoisoindolin-2-yl)piperidine-2,6-dione] |  | < 10 nM |  | < 10 nM | > 85% | > 85%
12 | O=C1CCC(N2C(=O)c3ccc(N4CCC(CN5CCC(CN6CCN7c8cc(-c9ccccc9O)nnc8NC[C@H]7C6)CC5)C(F)(F)C4)cc3C2=O)C(=O)N1 (stereo partly drawn) [Example 181, 5-[3,3-difluoro-4-[[4-[[(10S)-4-(2-hydroxyphenyl)-1,5,6,8,12-pentazatricyclo[8.4.0.02,7]tetradeca-2,4,6-trien-12-yl]methyl]piperidin-1-yl]mehtyl]piperidin-1-yl]-2-(2,6-dioxopiperidin-3-yl) isoindoline-1,3-dione] |  | < 10 nM |  | < 10 nM | > 85% | > 85%
13 | O=C1CCC(N2C(=O)c3ccc(N4CCO[C@@H](CN5C[C@@H]6[C@H](C5)[C@H]6CN5CCN6c7cc(-c8ccccc8O)nnc7NC[C@H]6C5)C4)cc3C2=O)C(=O)N1 (stereo partly drawn) [Example 51, 2-(2,6-dioxopiperidin-3-yl)-5-((S)-2-(((1R,5S,6R)-6-(((S)-2-(2-hydroxyphenyl)-5,6,6a,7,9,10-hexahydro-8H-pyrazino[1′,2′:4,5]pyrazino[2,3-c]pyridazin-8-yl)methyl)-3-azabicyclo[3.1.0]hexan-3-yl)methyl)morpholino)isoindoline-1,3-dione] |  | < 10 nM |  | < 10 nM | > 85% | 50 to 75%
14 | O=C1CCC(N2C(=O)c3ccc(N4CCC(CN5CC6CC(CN7CCN8c9cc(-c%10ccccc%10O)nnc9NC[C@H]8C7)C6C5)CC4)cc3C2=O)C(=O)N1 (stereo partly drawn) [Example 177, 2-(2,6-dioxopiperidin-3-yl)-5-[4-[[6-[[(10S)-4-(2-hydroxyphenyl)-1,5,6,8,12-pentazatricyclo[8.4.0.02,7]tetradeca-2,4,6-trien-12-yl]methyl]-3-azabicyclo[3.2.0]heptan-3-yl]methyl]piperidin-1-yl]isoindole-1,3-dione] |  | < 10 nM |  | < 10 nM | > 85% | 50 to 75%
15 | CN(CCN1CCC(N2CCN3c4cc(-c5ccccc5O)nnc4NC[C@H]3C2)CC1)c1cccc2c1C(=O)N(C1CCC(=O)NC1=O)C2=O (stereo partly drawn) [Example 68, 2-(2,6-dioxopiperidin-3-yl)-4-((2-(4-((S)-2-(2-hydroxyphenyl)-5,6,6a,7,9,10-hexahydro-8H-pyrazino[1′,2′:4,5]pyrazino[2,3-c]pyridazin-8-yl)piperidin-1-yl)ethyl)(methyl)amino)isoindoline-1,3-dione] |  | < 10 nM |  | 10 to 100 nM | > 85% | > 85%
16 | O=C1CCC(N2Cc3ccc(N4CCN(CC5CCN(C(=O)N6CCN7c8cc(-c9ccccc9O)nnc8NC[C@H]7C6)CC5)CC4)cc3C2=O)C(=O)N1 (stereo partly drawn) [Example 146, 3-(6-(4-((1-((S)-2-(2-hydroxyphenyl)-6,6a,7,8,9,10-hexahydro-5H-pyrazino[1′,2′:4,5]pyrazino[2,3-c]pyridazine-8-carbonyl)piperidin-4-yl)methyl)piperazin-1-yl)-1-oxoisoindolin-2-yl) piperidine-2,6-dione] |  | < 10 nM |  | < 10 nM | > 85% | > 85%
